In brackets after ≈: the same amount, converted by molar mass.

What all share (assay type): functional
In test [1] the test system is Staphylococcus aureus. Nature of the test: Antibacterial activity against Staphylococcus aureus TH4112 incubated for 16 to 20 hrs by CLSI-based broth microdilution method. The settings on record: time 16-20 hrs.
The subject of test [2] is Staphylococcus aureus. Nature of the test: Antibacterial activity against methicillin- resistant Staphylococcus aureus TH4115 incubated for 16 to 20 hrs by CLSI-based broth microdilution method. Particulars: time 16-20 hrs. A general note: Broth dilution looks for growth in wells or tubes with falling amounts of substance.
Test [3] has as its system Staphylococcus aureus. Briefly: Antibacterial activity against Staphylococcus aureus ATCC 29213 incubated for 20 hrs by CLSI-based broth microdilution checkerboard method.
The subject of another test is Bacillus subtilis. Briefly: Antibacterial activity against Bacillus subtilis ATCC 6051 incubated for 16 hrs by two-fold serial dilution method.
A further test deals with Enterococcus durans. Briefly: Antibacterial activity against Enterococcus durans ATCC 6056 incubated for 16 hrs by two-fold serial dilution method.
Another test has as its system Streptococcus salivarius. Briefly: Antibacterial activity against Streptococcus salivarius ATCC 13419 incubated for 16 hrs by two-fold serial dilution method.
The subject of test [4] is Staphylococcus aureus. Nature of the test: Antibacterial activity against Staphylococcus aureus ATCC 29213 incubated for 16 hrs by two-fold serial dilution method.
The subject of test [5] is Staphylococcus epidermidis. Nature of the test: Antibacterial activity against Staphylococcus epidermidis ATCC 14990 incubated for 16 hrs by two-fold serial dilution method.
Test [6] has as its system Staphylococcus aureus. Briefly: Antibacterial activity against methicillin resistant Staphylococcus aureus ATCC 33591 infected in iv dosed CD1 mouse model of septicemia assessed as protection against lethal infection administered as single dose starting from 1 hr post infection and measured 48 hrs post infection relative to control. Particulars: ATCC 33591, iv, time 47 hrs, read-out: PD50.

On to `CC[C@H](C)[C@H](NC(=O)[C@@H](Cc1ccc(-c2ccccc2)cc1)NC)C(=O)N[C@@H](CO)C(=O)N[C@H](CCCNC(=N)N)C(=O)N[C@@H](C(=O)N[C@H](C(=O)N[C@@H](CO)C(=O)N[C@H]1C(=O)N[C@@H](C)C(=O)N[C@@H](C[C@H]2CNC(=N)N2)C(=O)N[C@@H]([C@@H](C)CC)C(=O)O[C@H]1C)[C@@H](C)CC)[C@@H](C)CC`, for which the MIC in the test with Staphylococcus aureus [1] and with Staphylococcus aureus [2] was 0.25 µg/mL (≈ 0.186 µM) throughout.
With `CC[C@H](C)[C@H](NC(=O)[C@@H](Cc1ccccc1)NC)C(=O)N[C@@H](CO)C(=O)N[C@H](CCC(N)=O)C(=O)N[C@@H](C(=O)N(C)[C@H](C(=O)N[C@@H](CO)C(=O)N[C@H]1C(=O)N[C@@H](C)C(=O)N[C@@H](CCCCN)C(=O)N[C@@H]([C@@H](C)CC)C(=O)O[C@H]1C)[C@@H](C)CC)[C@@H](C)CC`, in the test on Staphylococcus aureus [3], the MIC (as a rule, the least concentration at which growth counts as inhibited) is 16 µg/mL.
Turning to `CC[C@H](C)[C@H](NC(=O)[C@@H](Cc1ccccc1)NC)C(=O)N[C@@H](CO)C(=O)N[C@H](CCC(N)=O)C(=O)N[C@@H](C(=O)N[C@H](C(=O)N[C@@H](CO)C(=O)N[C@H]1C(=O)N[C@@H](CCCCNS(=O)(=O)c2ccc(-c3c4ccc(=[N+](CC)CC)cc-4oc4cc(N(CC)CC)ccc34)c(S(=O)(=O)[O-])c2)C(=O)N[C@@H](CCCNC(=N)N)C(=O)N[C@@H]([C@@H](C)CC)C(=O)O[C@H]1C)[C@@H](C)CC)[C@@H](C)CC`, the MIC in the test on Bacillus subtilis was determined as 4 µg/mL (≈ 2.17 µM); in the test with Enterococcus durans, 8 µg/mL (≈ 4.34 µM); with Streptococcus salivarius, 4 µg/mL (≈ 2.17 µM); in the test on Staphylococcus aureus [4], 8 µg/mL (≈ 4.34 µM); in test [5], 8 µg/mL (≈ 4.34 µM).
Consider `CN[C@H](CC(C)C)C(=O)N[C@H]1C(=O)N[C@@H](CC(N)=O)C(=O)N[C@H]2C(=O)N[C@H]3C(=O)N[C@H](C(=O)N[C@H](C(=O)O)c4cc(O)cc(O)c4-c4cc3ccc4O)[C@H](O)c3ccc(c(Cl)c3)Oc3cc2cc(c3O[C@@H]2O[C@H](CO)[C@@H](O)[C@H](O)[C@H]2O[C@H]2C[C@](C)(N)[C@H](O)[C@H](C)O2)Oc2ccc(cc2Cl)[C@H]1O` [VANCOMYCIN], for which, in the test with Staphylococcus aureus [6], the ED50 was 2.75 mg/kg.
